The subject of one assay is Trica-SKR1. Description: Aequorin-luminescence assay, CHO-WTA11 cells (Gα16) transfected with Trica-SKR1. Conditions: for % Trica-SKR1 (relative activation): peptide at 1 μM, relative to sTrica-SK(5–13) at 1 μM = 100%, at least three biological repeats, each in duplicate. Type of assay: cell-based, Tribolium castaneum. The procedure:
(§1) General pharmacological studies were performed in Chinese Hamster Ovary (CHO) WTA11 cells, stably coexpressing apoaequorin, a zeocin resistance gene and the promiscuous Gα16, which couples most agonist-induced GPCRs to the phospholipase C and Ca^2+ pathway irrespective of their natural signaling cascade. CHO-PAM28 cells stably expressing apoaequorin and a puromycin resistance gene but not Gα16 and HEK293T cells (Invitrogen) were used to determine possible effects on Ca^2+ and/or cAMP second messenger systems, respectively. All cell lines were cultured in Dulbecco’s Modified Eagles Medium nutrient mixture F12-Ham (DMEM/F12; Invitrogen) supplemented with 1% penicillin/streptomycin (10000 units/ml penicillin and 10 mg/ml streptomycin in 0.9% NaCl; Invitrogen) to prevent bacterial contamination of gram-positive and gram-negative bacteria. In CHO-WTA11 culture medium 250 μg/ml zeocin (Invitrogen) was added as a selection marker, while CHO-PAM28 culture medium was supplemented with 5 μg/ml puromycin to select cells stably expressing apoaequorin. All cell culture media were supplemented with 10% fetal bovine serum (inactivated at […]; Sigma-Aldrich).
(§2) Cells were cultured in vitro as a monolayer at 37°C with a constant supply of 5% CO2 and were subcultivated twice a week. Transfections of cells were performed in T75 flasks at 60–80% confluency. Transfection reagent for CHO cells was prepared by combining 3.75 ml Opti-MEM I (Invitrogen), 7.5 μg plasmid DNA and 18.75 μl of Plus Reagent (Invitrogen). After gently mixing and 5 min incubation at room temperature 45 μl of Lipofectamine LTX was added to the mixture. This transfection medium was incubated for 30 min at room temperature and added dropwise to the cells, supplemented with 3 ml of fresh culture medium. HEK 293T cells were cotransfected with a receptor construct (6 μg) and CRE-luciferase reporter construct (3 μg), consisting of the open reading frame of the luciferase gene, downstream of a multimerized cAMP-response-element (CRE) and promoter. After transfection, cells were grown overnight before an additional 20 ml of culture medium was supplemented. Cells were again incubated overnight for a final growth phase before luminescence screens were performed.
(§3) The aequorin luminescence assay was used to measure Ca^2+ signaling in CHO cell lines. Cells were detached using phosphate buffered saline (PBS) containing 0.2% EDTA and collected in 10 ml of DMEM/F-12 (without phenol red, with L-glutamine and 10 mM HEPES; Gibco). The viable cells were quantified using a NucleoCounter NC-100 (Chemometic). Cells were pelleted by 4 min centrifugation at 800 rpm at room temperature and resuspended in DMEM/BSA (DMEM/F-12 without phenol red, with L-glutamine and 10 mM HEPES, 0.1% bovine serum albumin) at a concentration of 5×10^6 cells/ml. Cells were then shielded from light and Coelenterazine H (Invitrogen) was added at a final concentration of 5 μM. Cells were gently shaken at room temperature for 4 h under dark conditions, allowing the aequorin holoenzyme to be reconstituted. After a 10-fold dilution in DMEM/BSA, cells were incubated another 30 min under the same conditions. Pharmacological ligands were dissolved in DMEM/BSA and 50 μl of ligand was added to wells of a 96-well plate. Wells containing 50 μl of DMEM/BSA were used as a negative control, while wells containing 1 μM of ATP served as positive control. Incubated cells were added to the wells of the 96-well plate and light emission was measured for 30 s using a Mithras LB940 (Berthold Technologies). After 30 s Triton X-100 (0.2% in DMEM/BSA) was added, lysing the cells and thus serving as an internal reference. Light emission was measured for an additional 8 s after Triton X-100 was introduced in the wells. Light emission from each well was calculated relative to the total response (ligand+Triton X-100) using the output file of Mikrowin2000 software (Mikrotek). Further analysis was done in Graphpad Prism 5.

In the next assay the test system is Trica-SKR2. Nature of the assay: Aequorin-luminescence assay, CHO-WTA11 cells (Gα16) transfected with Trica-SKR2. Type of assay: cell-based, Tribolium castaneum. Conditions: for % Trica-SKR2 (relative activation): peptide at 1 μM, relative to sTrica-SK(5–13) at 1 μM = 100%, at least three biological repeats, each in duplicate. The procedure:
as §1, §2, §3

The source of these data is publication PMC3981819, “Signaling Properties and Pharmacological Analysis of Two Sulfakinin Receptors from the Red Flour Beetle, Tribolium castaneum” (PLoS ONE, 2014).

One may read the EC50 as the concentration that produces a half-maximal response.

Regarding “DYGHMRFa [2010[φ1]wp-1, truncated nonsulfated SK analog]”, the “% Trica-SKR1 (relative activation)” value in the assay on Trica-SKR1 (aequorin bioluminescence) was 7.6%. Besides, the “% Trica-SKR2 (relative activation)” value in the assay with Trica-SKR2 (aequorin bioluminescence) was 8.6%.
“FDDAGHMRFa [2008[φ1]wp-2, alanine scan analog of nsTrica-SK, tyrosine replaced]”: in the assay with Trica-SKR1 (aequorin bioluminescence), the “% Trica-SKR1 (relative activation)” value turned out to be 10.1%. Further, the “% Trica-SKR2 (relative activation)” value in the assay on Trica-SKR2 (aequorin bioluminescence) is recorded as 12.1%.
Take “DGY(SO3H)RPLQFa [1678B[φ1]wp-6, sulfated SK-like peptide encoded by C. elegans nlp-12]”: the “% Trica-SKR1 (relative activation)” value in the assay on Trica-SKR1 (aequorin bioluminescence) amounted to 28.5%. Also, the “% Trica-SKR2 (relative activation)” value in the assay on Trica-SKR2 (aequorin bioluminescence) is recorded as 19.9%.
“HMRFa [2052[φ1]wp-3, tetrapeptide HMRFamide, truncated analog]”: the “% Trica-SKR1 (relative activation)” value in the assay with Trica-SKR1 (aequorin bioluminescence) is 43.4%. In addition, the “% Trica-SKR2 (relative activation)” value in the assay on Trica-SKR2 (aequorin bioluminescence) is on record as 33.4%.
In the case of “pQLASDDY(SO3H)GHMRFa [sLocmi-SK, sulfated SK from the migratory locust, Locusta migratoria]”, the EC50 in the assay on Trica-SKR1 (aequorin bioluminescence, 1 fM to 1 μM, ± 95% confidence interval, three independent measurements in duplicate) came out at 16.8 ± 4.6 nM; with Trica-SKR2 (aequorin bioluminescence, 1 fM to 1 μM, three independent measurements in duplicate) it was 776 ± 443 nM. The “% Trica-SKR1 (relative activation)” value in the assay on Trica-SKR1 (aequorin bioluminescence) was 75.0%. Further, the “times less potent than sTrica-SK(5–13) in activating the Trica-SKR1” value in the assay on Trica-SKR1 (ratio of EC50 values) is listed as “about 150 times”. For the same substance, in the assay on Trica-SKR2 (aequorin bioluminescence), the “% Trica-SKR2 (relative activation)” value stood at 79.9%. Further, the “times less potent than sTrica-SK(5–13) as Trica-SKR2 agonist” value with Trica-SKR2 (ratio of EC50 values) is listed as “ca. 1500 times”.
Take “pQPSY(SO3H)DRDIMSFa [1679[φ1]wp-4, sulfated neuropeptide derived from C. elegans nlp-13]”: the “% Trica-SKR1 (relative activation)” value in the assay on Trica-SKR1 (aequorin bioluminescence) is given as 16.5%. Besides, the “% Trica-SKR2 (relative activation)” value in the assay with Trica-SKR2 (aequorin bioluminescence) was found to be 16.6%.
Turning to FDDYGHMRFa [nsTrica-SK(5–13)], the “% Trica-SKR1 (relative activation)” value in the assay on Trica-SKR1 (aequorin bioluminescence) is reported as 29.9%. The “% Trica-SKR2 (relative activation)” value in the assay on Trica-SKR2 (aequorin bioluminescence) is reported as 23.5%.
“FDDYAHMRFa [2007[φ1]wp-1, alanine scan analog of nsTrica-SK, glycine replaced]”: the “% Trica-SKR1 (relative activation)” value in the assay with Trica-SKR1 (aequorin bioluminescence) was 30.6%. Further, in the assay on Trica-SKR2 (aequorin bioluminescence), the “% Trica-SKR2 (relative activation)” value is given as 25.6%.
In the same order, the values of “FDDYGHMRAa [2003[φ1]wp-2, alanine scan analog of nsTrica-SK]” are 8.2% and 15.6%.
As to “pQLASDDYGHMRFa [nsLocmi-SK, nonsulfated Locusta migratoria SK]”, in the assay on Trica-SKR1 (aequorin bioluminescence), the “% Trica-SKR1 (relative activation)” value is given as 22.2%. Besides, the “% Trica-SKR2 (relative activation)” value in the assay with Trica-SKR2 (aequorin bioluminescence) worked out at 18.2%.
As for “SPVDYDRPIMAFa [1432-2[φ]wp-6, peptide derived from C. elegans nlp-13]”, the “% Trica-SKR1 (relative activation)” value in the assay on Trica-SKR1 (aequorin bioluminescence) was 16.4%. Besides, the “% Trica-SKR2 (relative activation)” value in the assay with Trica-SKR2 (aequorin bioluminescence) is 11.2%.
The matching figures for “SDDY(SO3H)GHMRFa [1835[φ2]wp-4, sulfated SK analog SDDY(SO3H)GHMRFa]”: 58.2% and 41.4%.
Regarding “DDYGHMRFa [2009[φ1]wp-1, truncated nonsulfated SK analog]”, in the assay on Trica-SKR1 (aequorin bioluminescence), the “% Trica-SKR1 (relative activation)” value is 27.2%. Further, the “% Trica-SKR2 (relative activation)” value with Trica-SKR2 (aequorin bioluminescence) is on record as 17.1%.
On to “PVDY(SO3H)DRPIMAFa [1569[φ2]wp-4, sulfated neuropeptide derived from C. elegans nlp-13]”, for which the “% Trica-SKR1 (relative activation)” value with Trica-SKR1 (aequorin bioluminescence) is recorded as 6.2%. For the same substance, the “% Trica-SKR2 (relative activation)” value with Trica-SKR2 (aequorin bioluminescence) is 13.4%.
Regarding “DY(SO3H)RPLQFa [1678A[φ1]wp-4, sulfated SK-like peptide encoded by C. elegans nlp-12]”, the “% Trica-SKR1 (relative activation)” value with Trica-SKR1 (aequorin bioluminescence) was determined as 40.8%. The “% Trica-SKR2 (relative activation)” value in the assay on Trica-SKR2 (aequorin bioluminescence) is recorded as 32.6%.
As to FDDYGHMRa [2076[φ1]wp-2], the “% Trica-SKR1 (relative activation)” value in the assay with Trica-SKR1 (aequorin bioluminescence) is 25.8%. The “% Trica-SKR2 (relative activation)” value with Trica-SKR2 (aequorin bioluminescence) is 19.7%.
Turning to “FDDYGAMRFa [2006[φ1]wp-1, alanine scan analog of nsTrica-SK]”, the “% Trica-SKR1 (relative activation)” value with Trica-SKR1 (aequorin bioluminescence) is 2.3%. Besides, the “% Trica-SKR2 (relative activation)” value in the assay on Trica-SKR2 (aequorin bioluminescence) came to 3.5%.
“FDDYGHMAFa [2004[φ1]wp-1, alanine scan analog of nsTrica-SK]”: in the assay with Trica-SKR1 (aequorin bioluminescence), the “% Trica-SKR1 (relative activation)” value came out at 5.9%. Moreover, in the assay on Trica-SKR2 (aequorin bioluminescence), the “% Trica-SKR2 (relative activation)” value is 7.3%.
